Tested on: T1, estradiol/estrogen methyltransferase (EMT; EmtABCD)
T1 construct: gene emtA; native, not purified; cell-free extract of estradiol-grown cells; assignment to emtABCD by proteogenomics; with Estrogen methyltransferase component EmtC; Estrogen methyltransferase component EmtD (oxidoreductase-like, putative reductive cofactor regeneration)
Assay: UPLC assay of methylation by cell-free extract, Michaelis-Menten
Format: biochemical, Denitratisoma oestradiolicum
Settings: SAM methyl donor, Ti(III)-citrate, MgCl2, HEPES/KOH pH 8.0, 30°C, anaerobic; crude soluble extract, enzyme not purified

Structure (SMILES)	Km [µM]
C[C@]12CC[C@@H]3c4ccc(O)cc4CC[C@H]3[C@@H]1CC[C@@H]2O [17β-estradiol]	35 ± 4
C[C@]12CC[C@@H]3c4ccc(O)cc4CC[C@H]3[C@@H]1CCC2=O [estrone]	14 ± 3

From paper PMC7448270, “Channeling C1 Metabolism toward S-Adenosylmethionine-Dependent Conversion of Estrogens to Androgens in Estrogen-Degrading Bacteria” (mBio, 2020)
